According to ChEMBL document CHEMBL1201862, “PubChem BioAssay data set” (2004):
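The compound was tested at five concentrations on cells cultured in 96-well plates, with a 48-hour exposure period. Abbreviation: GI50, concentration required for 50% inhibition of growth.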 Active and inactive are the calls of the source. No stated cut-off is given here; in the data, active = GI50 up to about 1.1 µM and inactive = higher.

Key:
Assay in all cases: growth of human tumour cells (NCI), 48 h
HCT-116 = tested on: HCT-116
CAKI-1 = tested on: CAKI-1
SW-620 = tested on: SW-620
COLO 205 = tested on: COLO 205
T47D = tested on: T47D
UACC-62 = tested on: UACC-62
MOLT-4 = tested on: MOLT-4
SNB-75 = tested on: SNB-75
OVCAR-4 = tested on: OVCAR-4
MDA-MB-435 = tested on: MDA-MB-435
SK-MEL-2 = tested on: SK-MEL-2
DU-145 = tested on: DU-145
OVCAR-3 = tested on: OVCAR-3
SF-268 = tested on: SF-268
NCI/ADR-RES = tested on: NCI/ADR-RES
Malme-3M = tested on: Malme-3M
NCI-H522 = tested on: NCI-H522
A549 = tested on: A549
HT-29 = tested on: HT-29
RPMI-8226 = tested on: RPMI-8226
OVCAR-5 = tested on: OVCAR-5
UO-31 = tested on: UO-31
SK-MEL-5 = tested on: SK-MEL-5
RXF 393 = tested on: RXF 393
SNB-19 = tested on: SNB-19
SK-MEL-28 = tested on: SK-MEL-28
HCC 2998 = tested on: HCC 2998
HOP-62 = tested on: HOP-62
786-0 = tested on: 786-0
Hs-578T = tested on: Hs-578T
ACHN = tested on: ACHN
U-251 = tested on: U-251
MCF7 = tested on: MCF7
SF-295 = tested on: SF-295
UACC-257 = tested on: UACC-257
IGROV-1 = tested on: IGROV-1
EKVX = tested on: EKVX
MDA-MB-231 = tested on: MDA-MB-231
MDA-N = tested on: MDA-N
SK-OV-3 = tested on: SK-OV-3
KM12 = tested on: KM12
BT-549 = tested on: BT-549
NCI-H23 = tested on: NCI-H23
NCI-H460 = tested on: NCI-H460
K562 = tested on: K562
M14 = tested on: M14
A498 = tested on: A498
OVCAR-8 = tested on: OVCAR-8
HOP-92 = tested on: HOP-92
HCT-15 = tested on: HCT-15
TK-10 = tested on: TK-10
PC-3 = tested on: PC-3

CCOC(=O)c1cc(C2(OC)CCN(Cc3ccccc3)C2=O)c(-c2cc(C)no2)[nH]1 (configuration not stated)
GI50 (HCT-116): > 100 µM (inactive)
GI50 (CAKI-1): > 100 µM (inactive)
GI50 (SW-620): > 100 µM (inactive)
GI50 (COLO 205): > 100 µM (inactive)
GI50 (T47D): > 100 µM (inactive)
GI50 (UACC-62): > 100 µM (inactive)
GI50 (MOLT-4): > 100 µM (inactive)
GI50 (SNB-75): > 100 µM (inactive)
GI50 (OVCAR-4): > 100 µM (inactive)
GI50 (MDA-MB-435): > 100 µM (inactive)
GI50 (SK-MEL-2): > 100 µM (inactive)
GI50 (DU-145): > 100 µM (inactive)
GI50 (OVCAR-3): > 100 µM (inactive)
GI50 (SF-268): > 100 µM (inactive)
GI50 (NCI/ADR-RES): > 100 µM (inactive)
GI50 (Malme-3M): > 100 µM (inactive)
GI50 (NCI-H522): > 100 µM (inactive)
GI50 (A549): > 100 µM (inactive)
GI50 (HT-29): 75.7 µM (inactive)
GI50 (RPMI-8226): > 100 µM (inactive)
GI50 (OVCAR-5): > 100 µM (inactive)
GI50 (UO-31): > 100 µM (inactive)
GI50 (SK-MEL-5): 97.1 µM (inactive)
GI50 (RXF 393): 99.5 µM (inactive)
GI50 (SNB-19): > 100 µM (inactive)
GI50 (SK-MEL-28): > 100 µM (inactive)
GI50 (HCC 2998): > 100 µM (inactive)
GI50 (HOP-62): > 100 µM (inactive)
GI50 (786-0): > 100 µM (inactive)
GI50 (Hs-578T): > 100 µM (inactive)
GI50 (ACHN): > 100 µM (inactive)
GI50 (U-251): > 100 µM (inactive)
GI50 (MCF7): 94.6 µM (inactive)
GI50 (SF-295): > 100 µM (inactive)
GI50 (UACC-257): > 100 µM (inactive)
GI50 (IGROV-1): > 100 µM (inactive)
GI50 (EKVX): 93.1 µM (inactive)
GI50 (MDA-MB-231): > 100 µM (inactive)
GI50 (MDA-N): > 100 µM (inactive)
GI50 (SK-OV-3): > 100 µM (inactive)
GI50 (KM12): > 100 µM (inactive)
GI50 (BT-549): > 100 µM (inactive)
GI50 (NCI-H23): > 100 µM (inactive)
GI50 (NCI-H460): 82.4 µM (inactive)
GI50 (K562): > 100 µM (inactive)
GI50 (M14): > 100 µM (inactive)
GI50 (A498): > 100 µM (inactive)
GI50 (OVCAR-8): > 100 µM (inactive)
GI50 (HOP-92): 90.6 µM (inactive)
GI50 (HCT-15): > 100 µM
GI50 (TK-10): > 100 µM (inactive)
GI50 (PC-3): > 100 µM (inactive)
